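All cell lines were grown in 96-well plates and treated with compound for 48 hours. TGI is the concentration that stops growth completely.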
How the values were obtained:
Test in all cases: NCI-60 cell line screen, 48 h
[1] = test system: LXFL 529 NSCLC
[2] = test system: OVCAR-8 ovarian
[3] = test system: SNB-19 CNS
[4] = test system: SK-MEL-28 melanoma
[5] = test system: SF-539 CNS
[6] = test system: OVCAR-5 ovarian
[7] = test system: SN12C renal
[8] = test system: UACC-257 melanoma
[9] = test system: HCT-116 colon
[10] = test system: UACC-62 melanoma
[11] = test system: DMS 114 small cell lung
[12] = test system: U251 CNS
[13] = test system: HCC-2998 colon
[14] = test system: HOP-18 NSCLC
[15] = test system: NCI-H23 lung
[16] = test system: HT29 colon
[17] = test system: A549 NSCLC
[18] = test system: NCI-H460 lung
[19] = test system: RXF 393 renal
[20] = test system: KM20L2 colon
[21] = test system: RXF-631 renal
[22] = test system: MOLT-4 leukemia
[23] = test system: A498 renal
[24] = test system: SR leukemia
[25] = test system: XF 498 CNS
[26] = test system: SNB-75 CNS
[27] = test system: ACHN renal
[28] = test system: SF-295 CNS
[29] = test system: DLD-1 colon
[30] = test system: M19-MEL melanoma
[31] = test system: EKVX NSCLC
[32] = test system: HL-60(TB) leukemia
[33] = test system: OVCAR-3 ovarian
[34] = test system: NCI-H226 lung
[35] = test system: DMS 273 small cell lung
[36] = test system: 786-0 renal
[37] = test system: LOX IMVI melanoma
[38] = test system: OVCAR-4 ovarian
[39] = test system: CCRF-CEM leukemia
[40] = test system: SK-MEL-5 melanoma
[41] = test system: KM12 colon
[42] = test system: K-562 leukemia
[43] = test system: CAKI-1 renal
[44] = test system: UO-31 renal
[45] = test system: SW-620 colon
[46] = test system: HCT-15 colon
[47] = test system: HOP-92 NSCLC
[48] = test system: TK-10 renal
[49] = test system: SK-MEL-2 melanoma
[50] = test system: MALME-3M melanoma
[51] = test system: M14 melanoma
[52] = test system: RPMI-8226 leukemia
[53] = test system: SNB-78 CNS
[54] = test system: IGROV1 ovarian
[55] = test system: SF-268 CNS
[56] = test system: COLO 205 colon
[57] = test system: NCI-H522 lung
[58] = test system: SK-OV-3 ovarian
[59] = test system: HOP-62 NSCLC

CC(=O)N(C)C=C1C(=O)N(C)C(=O)N(C)C1=O
TGI [1]: > 100 µM | TGI [2]: > 100 µM | TGI [3]: > 100 µM | TGI [4]: > 100 µM | TGI [5]: > 100 µM | TGI [6]: > 100 µM | TGI [7]: > 100 µM | TGI [8]: > 100 µM | TGI [9]: > 100 µM | TGI [10]: > 100 µM | TGI [11]: > 100 µM | TGI [12]: > 100 µM | TGI [13]: > 100 µM | TGI [14]: > 100 µM | TGI [15]: > 100 µM | TGI [16]: > 100 µM | TGI [17]: > 100 µM | TGI [18]: > 100 µM | TGI [19]: > 100 µM | TGI [20]: > 100 µM | TGI [21]: > 100 µM | TGI [22]: > 100 µM | TGI [23]: > 100 µM | TGI [24]: > 100 µM | TGI [25]: > 100 µM | TGI [26]: > 100 µM | TGI [27]: > 100 µM | TGI [28]: > 100 µM | TGI [29]: > 100 µM | TGI [30]: > 100 µM | TGI [31]: > 100 µM | TGI [32]: > 100 µM | TGI [33]: > 100 µM | TGI [34]: > 100 µM | TGI [35]: > 100 µM | TGI [36]: > 100 µM | TGI [37]: > 100 µM | TGI [38]: > 100 µM | TGI [39]: > 100 µM | TGI [40]: > 100 µM | TGI [41]: > 100 µM | TGI [42]: > 100 µM | TGI [43]: > 100 µM | TGI [44]: > 100 µM | TGI [45]: > 100 µM | TGI [46]: > 100 µM | TGI [47]: > 100 µM | TGI [48]: > 100 µM | TGI [49]: > 100 µM | TGI [50]: > 100 µM | TGI [51]: > 100 µM | TGI [52]: > 100 µM

CC(=O)NC1C(O)CC(OCCCSCCN)(C(=O)O)OC1C(O)C(O)CO (stereo not given)
TGI [1]: > 100 µM | TGI [2]: > 100 µM | TGI [53]: > 100 µM | TGI [3]: > 100 µM | TGI [4]: > 100 µM | TGI [54]: > 100 µM | TGI [5]: > 100 µM | TGI [6]: > 100 µM | TGI [7]: > 100 µM | TGI [8]: > 100 µM | TGI [9]: > 100 µM | TGI [11]: > 100 µM | TGI [12]: > 100 µM | TGI [13]: > 100 µM | TGI [14]: > 100 µM | TGI [15]: > 100 µM | TGI [16]: > 100 µM | TGI [55]: > 100 µM | TGI [56]: > 100 µM | TGI [17]: > 100 µM | TGI [18]: > 100 µM | TGI [19]: > 100 µM | TGI [20]: > 100 µM | TGI [21]: > 100 µM | TGI [22]: > 100 µM | TGI [23]: > 100 µM | TGI [24]: > 100 µM | TGI [25]: > 100 µM | TGI [26]: > 100 µM | TGI [27]: > 100 µM | TGI [28]: > 100 µM | TGI [29]: > 100 µM | TGI [31]: > 100 µM | TGI [32]: > 100 µM | TGI [34]: > 100 µM | TGI [35]: > 100 µM | TGI [37]: > 100 µM | TGI [38]: > 100 µM | TGI [39]: > 100 µM | TGI [40]: > 100 µM | TGI [41]: > 100 µM | TGI [43]: > 100 µM | TGI [45]: > 100 µM | TGI [46]: > 100 µM | TGI [47]: > 100 µM | TGI [48]: > 100 µM | TGI [49]: > 100 µM | TGI [50]: > 100 µM | TGI [51]: > 100 µM | TGI [52]: > 100 µM

CC#C[C@@]1(O)CCCCC1O (stereo not given in full)
TGI [2]: > 100 µM | TGI [53]: > 100 µM | TGI [3]: > 100 µM | TGI [4]: > 100 µM | TGI [54]: > 100 µM | TGI [5]: > 100 µM | TGI [7]: > 100 µM | TGI [8]: > 100 µM | TGI [9]: > 100 µM | TGI [10]: > 100 µM | TGI [11]: > 100 µM | TGI [12]: > 100 µM | TGI [13]: > 100 µM | TGI [14]: > 100 µM | TGI [15]: > 100 µM | TGI [57]: > 100 µM | TGI [16]: > 100 µM | TGI [55]: > 100 µM | TGI [56]: > 100 µM | TGI [17]: > 100 µM | TGI [18]: > 100 µM | TGI [19]: > 100 µM | TGI [20]: > 100 µM | TGI [21]: > 100 µM | TGI [58]: > 100 µM | TGI [22]: > 100 µM | TGI [23]: > 100 µM | TGI [25]: > 100 µM | TGI [26]: > 100 µM | TGI [27]: > 100 µM | TGI [28]: > 100 µM | TGI [30]: > 100 µM | TGI [31]: > 100 µM | TGI [32]: > 100 µM | TGI [33]: > 100 µM | TGI [34]: > 100 µM | TGI [35]: > 100 µM | TGI [36]: > 100 µM | TGI [37]: > 100 µM | TGI [59]: > 100 µM | TGI [38]: > 100 µM | TGI [39]: > 100 µM | TGI [40]: > 100 µM | TGI [41]: > 100 µM | TGI [42]: > 100 µM | TGI [44]: > 100 µM | TGI [45]: > 100 µM | TGI [46]: > 100 µM | TGI [47]: > 100 µM | TGI [48]: > 100 µM | TGI [49]: > 100 µM | TGI [50]: > 100 µM | TGI [51]: > 100 µM | TGI [52]: > 100 µM

CCOC(=O)C(=O)Nc1cccc(Cl)c1C
TGI [1]: > 100 µM | TGI [2]: > 100 µM | TGI [53]: > 100 µM | TGI [3]: > 100 µM | TGI [4]: > 100 µM | TGI [54]: > 100 µM | TGI [5]: > 100 µM | TGI [6]: > 100 µM | TGI [7]: > 100 µM | TGI [8]: > 100 µM | TGI [9]: > 100 µM | TGI [10]: > 100 µM | TGI [11]: > 100 µM | TGI [12]: > 100 µM | TGI [13]: > 100 µM | TGI [14]: > 100 µM | TGI [15]: > 100 µM | TGI [57]: > 100 µM | TGI [16]: > 100 µM | TGI [55]: > 100 µM | TGI [56]: > 100 µM | TGI [17]: > 100 µM | TGI [18]: > 100 µM | TGI [19]: > 100 µM | TGI [21]: > 100 µM | TGI [58]: > 100 µM | TGI [22]: > 100 µM | TGI [25]: > 100 µM | TGI [27]: > 100 µM | TGI [28]: > 100 µM | TGI [29]: > 100 µM | TGI [30]: > 100 µM | TGI [31]: > 100 µM | TGI [32]: > 100 µM | TGI [33]: > 100 µM | TGI [34]: > 100 µM | TGI [36]: > 100 µM | TGI [37]: > 100 µM | TGI [59]: > 100 µM | TGI [38]: > 100 µM | TGI [39]: > 100 µM | TGI [40]: > 100 µM | TGI [41]: > 100 µM | TGI [42]: > 100 µM | TGI [43]: > 100 µM | TGI [44]: > 100 µM | TGI [45]: > 100 µM | TGI [46]: > 100 µM | TGI [47]: > 100 µM | TGI [48]: > 100 µM | TGI [49]: > 100 µM | TGI [50]: > 100 µM | TGI [51]: > 100 µM | TGI [52]: > 100 µM

O=C1NC(=O)C2C1c1[nH]c3ccccc3c1C1CCCC12 (stereo not given)
TGI [1]: > 100 µM | TGI [2]: 64.5 µM | TGI [53]: > 100 µM | TGI [3]: > 100 µM | TGI [4]: > 100 µM | TGI [54]: > 100 µM | TGI [5]: 11.8 µM | TGI [6]: > 100 µM | TGI [7]: > 100 µM | TGI [10]: > 100 µM | TGI [11]: 29.5 µM | TGI [12]: 22.6 µM | TGI [13]: > 100 µM | TGI [14]: 83.8 µM | TGI [15]: > 100 µM | TGI [16]: > 100 µM | TGI [55]: 39.1 µM | TGI [56]: 32.1 µM | TGI [17]: > 100 µM | TGI [18]: > 100 µM | TGI [19]: 24.4 µM | TGI [21]: > 100 µM | TGI [58]: 45.4 µM | TGI [22]: > 100 µM | TGI [23]: 26.6 µM | TGI [24]: > 100 µM | TGI [25]: 6.85 µM | TGI [26]: 6.29 µM | TGI [27]: > 100 µM | TGI [28]: 6.56 µM | TGI [29]: > 100 µM | TGI [30]: > 100 µM | TGI [31]: > 100 µM | TGI [33]: 5.64 µM | TGI [34]: 51.7 µM | TGI [35]: 12.6 µM | TGI [36]: > 100 µM | TGI [37]: > 100 µM | TGI [38]: > 100 µM | TGI [39]: > 100 µM | TGI [40]: 8.66 µM | TGI [41]: > 100 µM | TGI [42]: > 100 µM | TGI [44]: > 100 µM | TGI [45]: > 100 µM | TGI [46]: > 100 µM | TGI [48]: > 100 µM | TGI [50]: > 100 µM | TGI [51]: > 100 µM | TGI [52]: > 100 µM
